Patent US20190292572A1, “Novel protic or phosphate-based ionic liquids useful for lignocellulosic processing” (priority 2016, published 2019)
Where two headings read alike, the source gives them in different places.

What was measured:
pH of ILs = format: physicochemical
cellulases = details: previous literatures; cited from earlier work
[1] = Biomass pretreatment using PBIL: enzymatic saccharification glucose yield
[2] = tested on: Saccharomyces cerevisiae strain BY4741; assay: Toxicity test: yeast growth in IL solution; format: cell-based
Protocol: FIG. 5A. Toxicity test of [EOA][OAc] (A) and effect of biomass loading on sugar yield (B). Conditions: yeast strain: Saccharomyces cerevisiae strain BY4741, growth condition: in 24-well microplate with orbital-high intensity shaking/31° C./in IL solution (10 g/L glucose in each IL solutions), volume of the cell culture was 0.5 mL.
For toxicity screening, a wild type S. cerevisiae BY4741 strain was technically used and it was immersed in various IL concentrations from 2.5 to 15 wt %.

[3] = IL pretreatment and saccharification of different feedstocks: mixed feedstocks; details: mixed feedstocks SG and eucalyptus 1:1 (FIG. 4D)
Protocol: (§1) FIG. 4D. Effects of some parameters on the sugar yield: Biomass category. Normal operation conditions: pretreatment, 10 wt % SG loading, 90 wt % IL, 160° C., 0.5 h (3 h for ecucalyptus); saccharification, 10 wt % IL, 20 mg protein/g SG, 50° C., 72 h.
(§2) Thereafter, we explored the feasibilities of [EOA][OAc] for the pretreatment of different feedstocks including mixed feedstocks of SG and eucalyptus (1:1, w/w), eucalyptus (EU), and corn stover (CS).

[4] = IL pretreatment and saccharification of different feedstocks: corn stover; details: corn stover (FIG. 4D)
Protocol: as §1, §2

[5] = One-pot IL pretreatment and enzymatic saccharification (sugar yield); set-up: species or system Panicum virgatum; details: for yield of glucose / yield of xylose: 160 °C
Protocol: FIG. 3. Effect of IL type on the sugar yield (pretreatment: 10 wt % SG loading, 90 wt % IL, 140° C., 1 h, saccharification: 10 wt % IL, 10 mg protein per g switchgrass, 50° C., 72 h.
FIG. 4A. Effects of some parameters on the sugar yield: Biomass loading at pretreatment. Normal operation conditions: pretreatment, 10 wt % SG loading, 90 wt % IL, 160° C., 0.5 h (3 h for ecucalyptus); saccharification, 10 wt % IL, 20 mg protein/g SG, 50° C., 72 h.
FIG. 4B. Effects of some parameters on the sugar yield: Temperature/time. Normal operation conditions: pretreatment, 10 wt % SG loading, 90 wt % IL, 160° C., 0.5 h (3 h for ecucalyptus); saccharification, 10 wt % IL, 20 mg protein/g SG, 50° C., 72 h.
In a typical procedure, SG (100 mg) was mixed with ([EOA][OAc]) at a 10% biomass loading in a 15 mL capped glass pressure tube and pretreated in a convection oven at 160° C. for 0.5 h. Untreated raw SG (30-40 mesh) was used as a control. […] Enzymatic saccharification step was operated at 50° C. for 72 hrs with constant agitation on an Enviro Genie SI-1200 rotator platform (Scientific Industries, Inc., Bohemia, N.Y.). The loading of enzyme cocktails (9CTec2/HTec2, v/v) is 20 mg EP per g SG.

[6] = Compositional analysis of switchgrass after IL pretreatment; set-up: species or system Panicum virgatum; details: higher temperature pretreatment vs untreated
Source text: Thus, compositional analysis of untreated, and pretreated SG with [EOA][OAc] at different temperatures and time was studied and the results were summarized in Table 4. Solid recovery refers to the mass percentage of biomass (dry weight) recovered from the original biomass load. After washing, 55-81% of the biomass was recovered. […] Untreated SG contained 29.6% glucan, 18.4% xylan and 20% acid insoluble lignin (entry 1). […] This trend was most obvious after pretreatment under higher temperature where lignin content was reduced by 77% (untreated: 20% vs. pretreated: 4.7%). […] IL are consistent with our previous report by using basic ILs such as [Ch][Lys] and [C2C1Im][Lys].^13
Compositional analysis of SG before and after pretreatment was performed using NREL acidolysis protocols (LAP) LAP-002 and LAP-005, which was described in our previous work.^13 In a typical process, 200 mg of biomass and 2 mL of 72 wt % H2SO4 were incubated at 30° C. while shaking at 300 rpm for 1 h. The solution was diluted to 4 wt % H2SO4 with 56 mL of DI water and autoclaved for 1 h at 121° C. […] Carbohydrate concentrations were determined from the filtrate using an Agilent HPLC 1200 Series equipped with a Bio-Rad Aminex HPX-87H column and a Refractive Index detector. […] Acid insoluble lignin was quantified gravimetrically from the solid after heating overnight at 105° C. […]

[7] = One-pot pretreatment and SSF (cellulosic ethanol production); set-up: species or system Panicum virgatum; details: for theoretical ethanol yield: SSF
Protocol: (§3) FIG. 6A. Process optimization of one-pot ethanol fermentation after [EOA][OAc] pretreatment. Effect of yeast loading on ethanol fermentation. Conditions: pretreatment, 40 wt % SG loading, 60 wt % IL, 160° C., 0.5 h; saccharification, 5 wt % IL, 20 mg protein/g SG, pH 5, 50° C., 24 h; fermentation, 37° C., 72 h.
as §3, with “6B.” for “6A.”, “Illustration” for “Effect”, “the glucose consumption and” for “yeast loading on”, “production during SSF.” for “fermentation.”
FIG. 7. Illustration of the glucose consumption and ethanol production during SSF. Conditions: pretreatment, 40 wt % SG loading, 60 wt % IL, 160° C., 0.5 h; saccharification, 5 wt % IL, 20 mg protein/g SG, 50° C., 24 h; fermentation, 37° C., 72 h.
In a typical procedure, SG (100 mg) was mixed with ([EOA][OAc]) at a 40% biomass loading in a 15 mL capped glass pressure tube and pretreated in a convection oven at 160° C. for 0.5 h. After pretreatment, the pretreated slurry was diluted with DI-water to obtain a final IL concentration of 5 wt %, and pre-saccharificated for 24 h under the same aforementioned conditions. Simultaneously, wide type yeast strain BY4741 was prepared. After the addition of yeast strain, the SSF step was conducted for 72 hrs.

[8] = IL pretreatment and saccharification of different feedstocks: eucalyptus; details: 3 h pretreatment (FIG. 4D)
Protocol: as §1, §2

[9] = optimized conditions, short time pretreatment
[10] = T/t 140/1, IL concentration not given

Compound: NCCO.O=P(O)(O)O [EA-dihydrogenphosphate]
- pH (pH of ILs; Table 2): 4.5

Compound: NCCCC[C@H](N)C(=O)O.NCCO [EA-lysinate-m 1]
- pH (pH of ILs; Table 2): 9

Compound: CC(=O)[O-].CCn1cc[n+](C)c1 [[C2C1Im][OAc], 1-ethyl-3-methyl imidazolium acetate]
- IL concentration known to deactivate cellulases (cellulases): ~5 wt %

Compound: CCCCn1cc[n+](C)c1.[Cl-] [[C4C1Im][Cl], 1-n-butyl-3-methylimidazolium chloride]
- IL concentration known to deactivate cellulases (cellulases): ~5 wt %

Compound: C[N+](C)(C)CCO.C[N+](C)(C)CCO.O=P([O-])([O-])O [[Ch]2[HPO4]]
- pH (pH of ILs): 8
- Enzymatic Saccharification Glucose yield % ([1]; T/t 140/1, IL 20%): 61.9%
- Enzymatic Saccharification Glucose yield % ([1]; T/t 140/1, IL 50%): 55.1%
- Enzymatic Saccharification Glucose yield % ([1]; T/t 140/1, IL 100%): 49.7%

Compound: C[N+](C)(C)CCO.C[N+](C)(C)CCO.C[N+](C)(C)CCO.O=P([O-])([O-])[O-] [[Ch]3[PO4]]
- pH (pH of ILs): 12.5
- Enzymatic Saccharification Glucose yield % ([1]; T/t 140/1, IL 20%): 54.6%
- Enzymatic Saccharification Glucose yield % ([1]; T/t 140/1, IL 50%): 61.1%
- Enzymatic Saccharification Glucose yield % ([1]; T/t 140/1, IL 100%): 61.8%

Compound: C[N+](C)(C)CCO.O=P([O-])(O)O [[Ch][H2PO4], Cholinium dihydrogen-phosphate]
- pH (pH of ILs): 4.5
- pH (pH of ILs; Table 2): 4.5
- Enzymatic Saccharification Glucose yield % ([1]; T/t 140/1, IL 20%): 17.5%
- Enzymatic Saccharification Glucose yield % ([1]; T/t 140/1, IL 50%): 16.9%
- Enzymatic Saccharification Glucose yield % ([1]; T/t 140/1, IL 100%): 14.4%

Compound: CC(=O)O.NCCO [[EOA][OAc], ethanolamine acetate]
- yeast growth ([2]; 5 wt % IL concentration): better yeast growth
- IL titer at which better yeast growth occurs ([2]; IL concentrations from 2.5 to 15 wt %, FIG. 5A): below 10 wt %
- sugar yields [3]: low sugar yields
- sugar yields [4]: best performance
- glucose yield ([5]; 10% SG loading, 160 °C pretreated sample): ~85%
- glucose yield ([5]; 40 wt % starting biomass loading (60 wt % IL), diluted to 5 wt % IL in saccharification (FIG. 5B)): comparative glucose yield with 20 wt % starting biomass loading
- yield of glucose ([5]; pretreatment time 0.5 hrs): 85%
- yield of xylose ([5]; pretreatment time 0.5 hrs): 35%
- yield of glucose ([5]; pretreatment time 3 hrs): 87%
- yield of xylose ([5]; pretreatment time 3 hrs): 42%
- glucose yield ([5]; SG loading 25 wt %): Around 60%
- glucose yield ([5]; biomass loading 5 to 20 wt % at pretreatment (FIG. 4A)): more than 75%
- increase in digestibility of SG ([5]; from 140 to 160 °C): over 40%
- sugar yield, IL screening ([5]; low pretreatment temperature and low enzyme loading (FIG. 3: 140 °C, 1 h, 10 mg protein per g switchgrass)): best performance
- glucose (monomers) liberated from switchgrass [5, 9]: 85%
- xylose (monomers) liberated from switchgrass [5, 9]: 35%
- digestibility of SG ([5]; pretreatment 140 °C (FIG. 4B)): 60%
- digestibility of SG ([5]; pretreatment 160 °C (FIG. 4B)): 85%
- glucose released from SG ([5]; pretreatment 160 °C, 15 min): 45%
- lignin content reduced by [6]: 77%
- theoretical ethanol yield ([7]; 40 wt % SG loading at pretreatment): 70%
- theoretical ethanol yield ([7]; yeast loading 0.1 wt % (1 g/L)): around 70%
- ethanol produced ([7]; from the glucan present in 1 kg of SG): 117 g
- overall conversion in one-pot ([7]; glucan balance, FIG. 7): 70%
- glucose from saccharification converted to ethanol ([7]; glucan/glucose balance, FIG. 7): over 90%
- ethanol yield versus yeast loading ([7]; yeast loading increased from 0.01 to 0.21 wt % (FIG. 6A)): no significant difference in ethanol yield
- sugar yields [8]: low sugar yields

Compound: CCCCN(CCCC)CCCC.O=P(O)(O)O [[N444][H2PO4]]
- ILs pH (pH of ILs; Table 5): 4.5
- Enzymatic Saccharification Glucose yield % ([1]; T/t 50/3): 13.4 ± 2.6%
- Enzymatic Saccharification Glucose yield % ([1]; T/t 90/3): 16.2 ± 0.6%

Compound: Cholinium bicarbonate [[Ch][Bicarbonate]]
- Enzymatic Saccharification Glucose yield % [1, 10]: 52.8 ± 4.3%

Compound: dimethylammonium dimethylcarbamate
- Enzymatic Saccharification Glucose yield % [1, 10]: 55.2 ± 3.9%
